In patent publication US9999619B2, “Piperidin-4-yl azetidine derivatives as JAK1 inhibitors” (Incyte Corporation, priority 2010, dated 2018):

What was measured:
Type in all cases: biochemical
Jak2 (a.a. 828-1132) = Jak2 (a.a. 828-1132) (Homo sapiens (Human), UniProt O60674); assay: In vitro JAK kinase assay (HTRF, phosphorylation of a biotinylated peptide), JAK2; settings: measured at 1 mM ATP
Procedure, shortened: (§1)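 N-terminal His-tagged catalytic domains, baculovirus-expressed in insect cells, phosphorylated a biotinylated peptide for 1 hr at room temperature. EDTA stop was followed by SA-APC and Eu-Py20 antibody for 40 minutes, with phosphopeptide read by HTRF.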

[1] = target: human JAK1 (a.a. 837-1142); assay: In vitro JAK kinase assay (HTRF, phosphorylation of a biotinylated peptide), JAK1; settings: ratio of JAK2 IC50 to JAK1 IC50, measured at 1 mM ATP
Procedure, shortened: as §1

[2] = target: human JAK1 (a.a. 837-1142) (Homo sapiens, UniProt P23458); assay: as above; settings: measured at 1 mM ATP
Procedure, shortened: as §1

Jak2 (a.a. 828-1132), sequence (O60674 828-1132): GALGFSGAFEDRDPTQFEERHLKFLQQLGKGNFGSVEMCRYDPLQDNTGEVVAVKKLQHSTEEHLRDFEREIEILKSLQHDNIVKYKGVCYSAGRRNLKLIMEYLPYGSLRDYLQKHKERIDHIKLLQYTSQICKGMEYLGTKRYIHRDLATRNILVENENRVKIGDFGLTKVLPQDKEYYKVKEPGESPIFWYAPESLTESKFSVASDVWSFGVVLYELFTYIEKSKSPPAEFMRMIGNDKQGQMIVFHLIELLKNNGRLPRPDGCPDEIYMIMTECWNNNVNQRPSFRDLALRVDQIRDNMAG

Structure (SMILES) | IC50 (Jak2 (a.a. 828-1132)) [nM] | IC50 Ratio JAK2/JAK1 [1] | IC50 [2] [nM]
N#CCC1(n2cc(-c3c(C#N)cnc4[nH]ccc34)cn2)CN(C2CCN(C(=O)c3c(F)cc(C#N)cc3F)CC2)C1 [Example 340, 4-{1-[1-[1-(4-cyano-2,6-difluorobenzoyl)piperidin-4-yl]-3-(cyanomethyl)azetidin-3-yl]-1H-pyrazol-4-yl}-1H-pyrrolo[2,3-b]pyridine-5-carbonitrile] | 10 to 50 | 1.4 | 20 to 30
CS(=O)(=O)N1CCC(N2CC(CC#N)(n3cc(-c4c(F)cnc5[nH]ccc45)cn3)C2)CC1 [Example 355, {3-[4-(5-Fluoro-1H-pyrrolo[2,3-b]pyridin-4-yl)-1H-pyrazol-1-yl]-1-[1-(methylsulfonyl)piperidin-4-yl]azetidin-3-yl}acetonitrile] | ≤ 10 | 3.1 | ≤ 5
N#CCC1(n2cc(-c3ccnc4[nH]ccc34)cn2)CN(C2CCN(C(=O)c3nc(C(F)(F)F)cs3)CC2)C1 [Example 350] | > 100 | 15.0 | 5 to 20
CCN(C)Cc1cc(C(=O)N2CCC(N3CC(CC#N)(n4cc(-c5ncnc6[nH]ccc56)cn4)C3)CC2)nc(C(F)(F)F)n1 [Example 374, {1-(1-{[6-{[ethyl(methyl)amino]methyl}-2-(trifluoromethyl)pyrimidin-4-yl]carbonyl}piperidin-4-yl)-3-[4-(7H-pyrrolo[2,3-d]pyrimidin-4-yl)-1H-pyrazol-1-yl]azetidin-3-yl}acetonitrile] | 10 to 50 | 50 | ≤ 5
N#CCC1(n2cc(-c3c(C#N)cnc4[nH]ccc34)cn2)CN(C2CCN(C(=O)c3cc(Br)ccc3Br)CC2)C1 [Example 335, 4-(1-{3-(cyanomethyl)-1-[1-(2,5-dibromobenzoyl)piperidin-4-yl]azetidin-3-yl}-1H-pyrazol-4-yl)-1H-pyrrolo[2,3-b]pyridine-5-carbonitrile] | ≤ 10 | 2.4 | ≤ 5
N#CCC1(n2cc(-c3ncnc4[nH]ccc34)cn2)CN(C2CCN(C(=O)c3cnccn3)CC2)C1 [Example 14, {1-[1-(pyrazin-2-lcarbonyl)piperidin-4-yl]-3-[4-(7H-pyrrolo[2,3-d]pyrimidin-4-yl)-1H-pyrazol-1-yl]azetidin-3-l}acetonitrile] | 10 to 50 | 3.2 | 5 to 20
N#CCC1(n2ccc(-c3ncnc4[nH]ccc34)c2)CN(C2CCN(C(=O)c3ccnc(C(F)(F)F)n3)CC2)C1 [Example 345, [3-[3-(7H-Pyrrolo[2,3-d]pyrimidin-4-yl)-1H-pyrrol-1-yl]-1-(1-{[2-(trifluoromethyl)pyrimidin-4-yl]carbonyl}piperidin-4-yl)azetidin-3-yl]acetonitrile] | 50 to 100 | 11.9 | 5 to 20
COc1nc(CN2CCC(N3CC(CC#N)(n4cc(-c5ncnc6[nH]ccc56)cn4)C3)CC2)ccc1C#N [Example 224, 6-[(4-{3-(cyanomethyl)-3-[4-(7H-pyrrolo[2,3-d]pyrimidin-4-yl)-1H-pyrazol-1-yl]azetidin-1-yl}piperidin-1-yl)methyl]-2-methoxynicotinonitrile] | 50 to 100 | 2.4 | 20 to 30
N#CCC1(n2cc(-c3ncnc4[nH]ccc34)cn2)CN(C2CCN(Cc3c(F)cccc3C(F)(F)F)CC2)C1 [Example 213, {1-{1-[2-fluoro-6-(trifluoromethyl)benzyl]piperidin-4-yl}-3-[4-(7H-pyrrolo[2,3-d]pyrimidin-4-yl)-1H-pyrazol-1-yl]azetidin-3-yl}acetonitrile] | 10 to 50 | 9.7 | ≤ 5
N#CCC1(n2ccc(-c3ncnc4[nH]ccc34)c2)CN(C2CCN(C(=O)c3ccc(F)c(F)c3)CC2)C1 [Example 277, {1-[1-(3,4-difluorobenzoyl)piperidin-4-yl]-3-[3-(7H-pyrrolo[2,3-d]pyrimidin-4-yl)-1H-pyrrol-1-yl]azetidin-3-yl}acetonitrile] | 10 to 50 | 9.8 | ≤ 5
N#CCC1(n2cc(-c3c(F)cnc4[nH]ccc34)cn2)CN(C2CCN(C(=O)c3ccnc(C(F)(F)F)n3)CC2)C1 [Example 353, [3-[4-(5-Fluoro-1H-pyrrolo[2,3-b]pyridin-4-yl)-1H-pyrazol-1-yl]-1-(1-{[2-(trifluoromethyl)pyrimidin-4-yl]carbonyl}piperidin-4-yl)azetidin-3-yl]acetonitrile] | 10 to 50 | 5.0 | 5 to 20
N#CCC1(n2cc(-c3ncnc4[nH]ccc34)cn2)CN(C2CCN(C(=O)c3cc4ccccc4s3)CC2)C1 [Example 90, {1-[1-(1-benzothien-2-ylcarbonyl)piperidin-4-yl]-3-[4-(7H-pyrrolo[2,3-d]pyrimidin-4-yl)-1H-pyrazol-1-yl]azetidin-3-yl}acetonitrile] | ≤ 10 | 1.5 | ≤ 5
Cc1ccsc1C(=O)N1CCC(N2CC(CC#N)(n3cc(-c4ncnc5[nH]ccc45)cn3)C2)CC1 [Example 78, {1-{1-[(3-methyl-2-thienyl)carbonyl]piperidin-4-yl}-3-[4-(7H-pyrrolo[2,3-d]pyrimidin-4-yl)-1H-pyrazol-1-yl]azetidin-3-yl}acetonitrile] | 10 to 50 | 5.4 | ≤ 5
N#CCC1(n2cc(-c3ncnc4[nH]ccc34)cn2)CN(C2CCN(C(=O)Nc3ccccc3Cl)CC2)C1 [Example 163, N-(2-chlorophenyl)-4-{3-(cyanomethyl)-3-[4-(7H-pyrrolo[2,3-d]pyrimidin-4-yl)-1H-pyrazol-1-yl]azetidin-1-yl}piperidine-1-carboxamide] | 10 to 50 | 12.0 | ≤ 5
N#CCC1(n2ccc(-c3ncnc4[nH]ccc34)c2)CN(C2CCN(C(=O)c3ccc(F)c(C(F)(F)F)c3)CC2)C1 [Example 275, {1-{1-[4-fluoro-3-(trifluoromethyl)benzoyl]piperidin-4-yl}-3-[3-(7H-pyrrolo[2,3-d]pyrimidin-4-yl)-1H-pyrrol-1-yl]azetidin-3-yl}acetonitrile] | 10 to 50 | 3.1 | 5 to 20
Cc1ccc(NC(=O)N2CCC(N3CC(CC#N)(n4cc(-c5ncnc6[nH]ccc56)cn4)C3)CC2)c(C)n1 [Example 189, 4-{3-(cyanomethyl)-3-[4-(7H-pyrrolo[2,3-d]pyrimidin-4-yl)-1H-pyrazol-1-yl]azetidin-1-yl}-N-(2,6-dimethylpyridin-3-yl)piperidine-1-carboxamide] | 10 to 50 | 3.5 | 5 to 20
N#CCC1(n2cc(-c3ncnc4[nH]ccc34)cn2)CN(C2CCN(C(=O)OCc3ccc(F)cc3F)CC2)C1 [Example 393, 2,4-difluorobenzyl 4-{3-(cyanomethyl)-3-[4-(7H-pyrrolo[2,3-d]pyrimidin-4-yl)-1H-pyrazol-1-yl]azetidin-1-yl}piperidine-1-carboxylate] | 10 to 50 | 7.1 | ≤ 5
COc1ccc(OC)c(NC(=O)N2CCC(N3CC(CC#N)(n4cc(-c5ncnc6[nH]ccc56)cn4)C3)CC2)c1 [Example 186, 4-{3-(cyanomethyl)-3-[4-(7H-pyrrolo[2,3-d]pyrimidin-4-yl)-1H-pyrazol-1-yl]azetidin-1-yl}-N-(2,5-dimethoxyphenyl)piperidine-1-carboxamide] | 10 to 50 | 5.5 | ≤ 5
N#CCC1(n2cc(-c3ncnc4[nH]ccc34)cn2)CN(C2CCN(C(=O)c3cccc4ccccc34)CC2)C1 [Example 87, {1-[1-(1-naphthoyl)piperidin-4-yl]-3-[4-(7H-pyrrolo[2,3-d]pyrimidin-4-yl)-1H-pyrazol-1-yl]azetidin-3-yl}acetonitrile] | ≤ 10 | 0.3 | ≤ 5
N#CCC1(n2cc(-c3ncnc4[nH]ccc34)cn2)CN(C2CCN(C(=O)c3csc4ccccc34)CC2)C1 [Example 96, {1-[1-(1-benzothien-3-ylcarbonyl)piperidin-4-yl]-3-[4-(7H-pyrrolo[2,3-d]pyrimidin-4-yl)-1H-pyrazol-1-yl]azetidin-3-yl}acetonitrile] | ≤ 10 | 0.5 | ≤ 5
N#CCC1(n2cc(-c3ncnc4[nH]ccc34)cn2)CN(C2CCN(C(=O)Nc3ccc(Cl)cc3)CC2)C1 [Example 184, N-(4-chlorophenyl)-4-{3-(cyanomethyl)-3-[4-(7H-pyrrolo[2,3-d]pyrimidin-4-yl)-1H-pyrazol-1-yl]azetidin-1-yl}piperidine-1-carboxamide] | ≤ 10 | 3.9 | ≤ 5
N#CCC1(n2cc(-c3ncnc4[nH]ccc34)cn2)CN(C2CCN(C(=O)Nc3cc(F)ccc3F)CC2)C1 [Example 174, 4-{3-(cyanomethyl)-3-[4-(7H-pyrrolo[2,3-d]pyrimidin-4-yl)-1H-pyrazol-1-yl]azetidin-1-yl}-N-(2,5-difluorophenyl)piperidine-1-carboxamide] | ≤ 10 | 7.1 | ≤ 5
N#CCC1(n2ccc(-c3ncnc4[nH]ccc34)c2)CN(C2CCN(C(=O)c3ccnc(C(F)(F)F)c3F)CC2)C1 [Example 261, {1-{1-[3-Fluoro-2-(trifluoromethyl)isonicotinoyl]piperidin-4-yl}-3-[3-(7H-pyrrolo[2,3-d]pyrimidin-4-yl)-1H-pyrrol-1-yl]azetidin-3-yl}acetonitrile] | > 100 | 20.8 | 5 to 20
N#CCC1(n2cc(-c3ncnc4[nH]ccc34)cn2)CN(C2CCN(S(=O)(=O)C3CCCC3)CC2)C1 [Example 253, {1-[1-(cyclopentylsulfonyl)piperidin-4-yl]-3-[4-(7H-pyrrolo[2,3-d]pyrimidin-4-yl)-1H-pyrazol-1-yl]azetidin-3-yl}acetonitrile] | ≤ 10 | 5.8 | ≤ 5
